Data published in article PMC8536124 (International Journal of Molecular Sciences, 2021).
Marks after values point to notes of the source that are not given here.

Experiments:
[1] = system: RPMI cells; assay: DAPI staining, nuclear morphology; assay type: cell-based, human; settings: 24 h
Procedure: The cells were cultured in 24-well plates at 2 × 10^5 cells/well. Two samples (compounds 4 and 6) of three different concentrations (0.1, 1, and 5 μM) and three concentrations of DMSO (0.1, 1, 5 μM) were used to stimulate the cells. The immunofluorescent staining technique was performed according to the protocol in [92]. Thus, after 24 h of stimulation, the cells were fixed by adding 4% paraformaldehyde and incubating at room temperature for one hour. After fixation, cell permeability was performed with 2% Triton X solution in phosphate-buffered saline (PBS). After 30 min of incubation at room temperature, blocking of permeabilization was performed with 0.01% Triton X solution and incubation at RT for one hour. DAPI staining was used in a concentration of 300 nM to visualize the nuclei. The cells were analyzed by fluorescence microscope at 40× magnification using CellSens V1.15 software (Olympus, Tokyo, Japan) and Image J software.

[2] = system: Bcl-XL gene, RPMI; assay: Gene expression by qRT-PCR; assay type: cell-based, human; settings: 1 μM, mean 2^∆∆Ct, DMSO 18.563

| Compound | nuclear morphology (DAPI) ([1]; 0.1 µM) | nuclear morphology (DAPI) ([1]; 1 µM) | nuclear morphology (DAPI) ([1]; 5 µM (highest concentration)) | Expression of Bcl-XL gene, Mean [2] |
| --- | --- | --- | --- | --- |
| CCN1CCN(C(=O)[C@]23CC[C@@H](C)[C@H](C)[C@H]2C2=CC[C@@H]4[C@@]5(C)CCC(=O)C(C)(C)[C@@H]5CC[C@@]4(C)[C@]2(C)CC3)CC1 [Compound 4, N-(3-oxo-ursan-12-en-28-oyl)-ethylpiperazine] | massive chromatin condensation | visible nuclear fragmentation | blebbing of the nuclear membrane | – |
| CCN1CCN(C(=O)[C@]23CCC(C)(C)C[C@H]2C2=CC[C@@H]4[C@@]5(C)C/C(=C/c6cccnc6)C(=O)C(C)(C)[C@@H]5CC[C@@]4(C)[C@]2(C)CC3)CC1 [Compound 6] | nuclear fragmentation | chromatin condensation | apoptotic bodies | 1.050 * |
